Reference: US8192962B2, “Processes for detecting toxic substances” (Daikin Industries, Ltd., priority 2001, dated 2012)

Test system: Transport facilitation protein genes
Test: DNA chip mRNA expression in yeast, transport facilitation protein genes (Table 5)
Format: cell-based, Saccharomyces cerevisiae S288C
Outline: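 First, S288C yeast grown in YPD at 25° C. are dosed in log phase with one toxicant (growth-inhibiting, not lethal) for 2 h. Next, total RNA is extracted and poly(A) mRNA isolated and reverse-transcribed with Cy3/Cy5-dUTP. Finally, whole-genome chip fluorescence is read relative to unexposed cells.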

Structure (SMILES): CCCCCCCCCCCCOS(=O)(=O)[O-].[Na+] [(18), sodium lauryl sulfate]
- The level of expressed mRNA in the presence of chemical substance/The level of expressed mRNA in the absence of chemical substance (yeast gene YBL030C): 1.1
- The level of expressed mRNA in the presence of chemical substance/The level of expressed mRNA in the absence of chemical substance (yeast gene YBL099W): 1.2
- The level of expressed mRNA in the presence of chemical substance/The level of expressed mRNA in the absence of chemical substance (yeast gene YBR052C): 3.1
- The level of expressed mRNA in the presence of chemical substance/The level of expressed mRNA in the absence of chemical substance (yeast gene YBR068C): 1.3
- The level of expressed mRNA in the presence of chemical substance/The level of expressed mRNA in the absence of chemical substance (yeast gene YBR127C): 1.0
- The level of expressed mRNA in the presence of chemical substance/The level of expressed mRNA in the absence of chemical substance (yeast gene YBR132C): 1.3
- The level of expressed mRNA in the presence of chemical substance/The level of expressed mRNA in the absence of chemical substance (yeast gene YBR207W): 1.4
- The level of expressed mRNA in the presence of chemical substance/The level of expressed mRNA in the absence of chemical substance (yeast gene YBR293W): 0.9
- The level of expressed mRNA in the presence of chemical substance/The level of expressed mRNA in the absence of chemical substance (yeast gene YBR294W): 0.9
- The level of expressed mRNA in the presence of chemical substance/The level of expressed mRNA in the absence of chemical substance (yeast gene YBR295W): 1.2
- The level of expressed mRNA in the presence of chemical substance/The level of expressed mRNA in the absence of chemical substance (yeast gene YBR298C): 0.8
- The level of expressed mRNA in the presence of chemical substance/The level of expressed mRNA in the absence of chemical substance (yeast gene YCL025C): 0.6
- The level of expressed mRNA in the presence of chemical substance/The level of expressed mRNA in the absence of chemical substance (yeast gene YCL038C): 1.5
- The level of expressed mRNA in the presence of chemical substance/The level of expressed mRNA in the absence of chemical substance (yeast gene YCR024C-A): 1.4
- The level of expressed mRNA in the presence of chemical substance/The level of expressed mRNA in the absence of chemical substance (yeast gene YCR037C): 0.9
- The level of expressed mRNA in the presence of chemical substance/The level of expressed mRNA in the absence of chemical substance (yeast gene YCR098C): 1.6
- The level of expressed mRNA in the presence of chemical substance/The level of expressed mRNA in the absence of chemical substance (yeast gene YDL128W): 1.0
- The level of expressed mRNA in the presence of chemical substance/The level of expressed mRNA in the absence of chemical substance (yeast gene YDL198C): 1.1
- The level of expressed mRNA in the presence of chemical substance/The level of expressed mRNA in the absence of chemical substance (yeast gene YDL210W): 0.9
- The level of expressed mRNA in the presence of chemical substance/The level of expressed mRNA in the absence of chemical substance (yeast gene YDL245C): 1.1
- The level of expressed mRNA in the presence of chemical substance/The level of expressed mRNA in the absence of chemical substance (yeast gene YDR038C): 1.5
- The level of expressed mRNA in the presence of chemical substance/The level of expressed mRNA in the absence of chemical substance (yeast gene YDR039C): 1.6
- The level of expressed mRNA in the presence of chemical substance/The level of expressed mRNA in the absence of chemical substance (yeast gene YDR086C): 1.9
- The level of expressed mRNA in the presence of chemical substance/The level of expressed mRNA in the absence of chemical substance (yeast gene YDR270W): 0.7
- The level of expressed mRNA in the presence of chemical substance/The level of expressed mRNA in the absence of chemical substance (yeast gene YDR298C): 1.6
- The level of expressed mRNA in the presence of chemical substance/The level of expressed mRNA in the absence of chemical substance (yeast gene YDR342C): 2.2
- The level of expressed mRNA in the presence of chemical substance/The level of expressed mRNA in the absence of chemical substance (yeast gene YDR343C): 2.3
- The level of expressed mRNA in the presence of chemical substance/The level of expressed mRNA in the absence of chemical substance (yeast gene YDR345C): 1.8
- The level of expressed mRNA in the presence of chemical substance/The level of expressed mRNA in the absence of chemical substance (yeast gene YDR387C): 1.1
- The level of expressed mRNA in the presence of chemical substance/The level of expressed mRNA in the absence of chemical substance (yeast gene YDR497C): 1.8
- The level of expressed mRNA in the presence of chemical substance/The level of expressed mRNA in the absence of chemical substance (yeast gene YEL027W): 1.4
- The level of expressed mRNA in the presence of chemical substance/The level of expressed mRNA in the absence of chemical substance (yeast gene YEL063C): 0.7
- The level of expressed mRNA in the presence of chemical substance/The level of expressed mRNA in the absence of chemical substance (yeast gene YEL065W): 0.6
- The level of expressed mRNA in the presence of chemical substance/The level of expressed mRNA in the absence of chemical substance (yeast gene YER053C): 2.3
- The level of expressed mRNA in the presence of chemical substance/The level of expressed mRNA in the absence of chemical substance (yeast gene YFL011W): 1.0
- The level of expressed mRNA in the presence of chemical substance/The level of expressed mRNA in the absence of chemical substance (yeast gene YFL041W): 0.9
- The level of expressed mRNA in the presence of chemical substance/The level of expressed mRNA in the absence of chemical substance (yeast gene YFL050C): 1.0
- The level of expressed mRNA in the presence of chemical substance/The level of expressed mRNA in the absence of chemical substance (yeast gene YFL054C): 1.4
- The level of expressed mRNA in the presence of chemical substance/The level of expressed mRNA in the absence of chemical substance (yeast gene YGL006W): 4.1
- The level of expressed mRNA in the presence of chemical substance/The level of expressed mRNA in the absence of chemical substance (yeast gene YGL008C): 1.0
- The level of expressed mRNA in the presence of chemical substance/The level of expressed mRNA in the absence of chemical substance (yeast gene YGL104C): 1.3
- The level of expressed mRNA in the presence of chemical substance/The level of expressed mRNA in the absence of chemical substance (yeast gene YGL167C): 1.4
- The level of expressed mRNA in the presence of chemical substance/The level of expressed mRNA in the absence of chemical substance (yeast gene YGL255W): 0.5
- The level of expressed mRNA in the presence of chemical substance/The level of expressed mRNA in the absence of chemical substance (yeast gene YGR055W): 0.7
- The level of expressed mRNA in the presence of chemical substance/The level of expressed mRNA in the absence of chemical substance (yeast gene YGR065C): 0.7
- The level of expressed mRNA in the presence of chemical substance/The level of expressed mRNA in the absence of chemical substance (yeast gene YGR082W): 0.8
- The level of expressed mRNA in the presence of chemical substance/The level of expressed mRNA in the absence of chemical substance (yeast gene YGR096W): 1.0
- The level of expressed mRNA in the presence of chemical substance/The level of expressed mRNA in the absence of chemical substance (yeast gene YGR138C): 0.7
- The level of expressed mRNA in the presence of chemical substance/The level of expressed mRNA in the absence of chemical substance (yeast gene YGR191W): 0.8
- The level of expressed mRNA in the presence of chemical substance/The level of expressed mRNA in the absence of chemical substance (yeast gene YGR197C): 1.9
